Experimental data from patent US9133230B2, “Hydrazone derivatives having potent antitumor activity toward multi-drug resistant tumor cells” (THE UNITED STATES OF AMERICA AS REPRESENTED BY THE …, priority 2011, dated 2015).

Tests used:
[1] = tested on: human myelogenous leukemia K562; test: MTS cytotoxicity assay, K562; assay type: cell-based
Method: (§1) In order to obtain information about the growth-inhibiting action of hydrazones reported in the present invention on tumor cells, growth inhibition was assessed for the following human tumor cell lines: human myelogenous leukemia K562, human cervical adenocarcinoma HeLa, human colon adenocarcinoma Caco-2, human colon carcinoma HT-29, human colon carcinoma HCT-15, and human breast carcinoma MCF-7.
(§2) The K562, HeLa, HT-29, HCT-15, Caco-2, and MCF-7 cell lines were obtained from the American type Culture Collection (ATCC, Manassas, Va.). K562 cells were maintained in RPMI 1640 medium (Gibco/Life Technologies, Gaithersburg, Md.) containing 10% heat-inactivated fetal bovine serum (FBS) (Atlanta Biologicals, Atlanta, Ga.) and 10000 U/L penicillin and 50 mg/L streptomycin. HeLa, HT-29, HCT-15, Caco-2 and MCF-7 cells were maintained in MEM with Earl's balanced salts, 10% FBS, penicillin, and streptomycin as above. Logarithmically growing HT-29, Caco-2, and MCF-7 cells were incubated with 0.05% trypsin containing 1 mM EDTA at 37° C. for about 5 min until cells were nonadherent and formed a single cell suspension. Trypsin activity was neutralized by adding 20-fold excess of the serum-containing medium. Cells were cultured at 37° C. in an atmosphere of air and 5% CO2.
(§3) Cytotoxicity assays were conducted by tetrazolium reduction of 3-(4,5-dimethylthiazol-2-yl)-5-(3-carboxymethoxyphenyl)-2-(4-sulfophenyl)-2H-tetrazolium (MTS) with N-methylphenazonium methyl sulfate (PMS) (CellTiter Assay, Promega, Madison, Wis.). Logarithmically growing cells were plated in 0.1 mL aliquots in 96-well microtiter plates. Cells were plated at an initial density of about 5000 cells/mL and allowed to acclimatize for 24 h. Cell suspensions were treated with various dilutions of compounds in triplicate, mixed well, and allowed to incubate for 48 h at 37° C. in an atmosphere of air and 5% CO2. To the cell suspension was added 20 μL of tetrazolium reagent, the mixture was incubated for 2 h at 37° C. in an atmosphere of air and 5% CO2, and absorbance at 490 nm was read by microplate reader. Control plates with serial dilutions of cell types were counted as a control for the assay. In all cases, controls indicated a linear response versus cell number, R^2≧0.99.

[2] = tested on: human breast carcinoma MCF-7; test: MTS cytotoxicity assay, MCF-7; assay type: cell-based
Method: as §1, §2, §3

[3] = tested on: human colon adenocarcinoma Caco-2; test: MTS cytotoxicity assay, Caco-2; assay type: cell-based
Method: as §1, §2, §3

[4] = tested on: human cervical adenocarcinoma HeLa; test: MTS cytotoxicity assay, HeLa; assay type: cell-based; details: 48 h incubation
Method: as §1, §2, §3

[5] = tested on: human colon carcinoma HT-29; test: MTS cytotoxicity assay, HT-29; assay type: cell-based
Method: as §1, §2, §3

[6] = tested on: human colon carcinoma HCT-15; test: MTS cytotoxicity assay, HCT-15; assay type: cell-based
Method: as §1, §2, §3

[7] = tested on: HL60-VCR; details: MDR cell line characterisation; cited from earlier work
[8] = Homo sapiens, K562, 48 h incubation
[9] = Homo sapiens, MCF7, 48 h incubation
[10] = Homo sapiens, Caco-2, 48 h incubation
[11] = Homo sapiens, HT-29, 48 h incubation
[12] = Homo sapiens, HCT-15, 48 h incubation

Compound	GI50 ([1]; 48 h incubation) [µM]	GI50 [1, 8] [µM]	GI50 [2, 9] [µM]	GI50 [3, 10] [µM]	GI50 ([4]; Homo sapiens, HeLa) [µM]	GI50 [5, 11] [µM]	GI50 [6, 12] [µM]	GI50 ([2]; 48 h incubation) [µM]	GI50 ([3]; 48 h incubation) [µM]	GI50 [4] [µM]	GI50 ([6]; 48 h incubation) [µM]	GI50 ([5]; 48 h incubation) [µM]	resistance expressed by HL60-VCR [7] [fold]
6-(2-(Dipyridin-2-yl)methylene)hydrazinyl)-9-methyl-9H-purine [I-23]	0.9												
C[C@]1(O)C(O)[C@H](n2cnc3c(NN=C(c4ccccc4)c4ccccn4)ncnc32)O[C@@H]1CO (stereo partly drawn) [I-1, (2R,3S,5R)-2-(hydroxymethyl)-3-methyl-5-(6-(2-(phenyl(pyridin-2-yl)methylene)hydrazinyl)-9H-purin-9-yl)tetrahydrofuran-3,4-diol]		48.1	> 100	43.2	68.9	57.2							
CC(=NNc1ncnc2c1ncn2C1O[C@H](CO)[C@@](C)(O)[C@H]1O)c1ccccn1 (stereo partly drawn) [I-2, (2R,3S,4R)-2-(hydroxymethyl)-3-methyl-5-(6-(2-(1-(pyridin-2-yl)ethylidene)hydrazinyl)-9H-purin-9-yl)tetrahydrofuran-3,4-diol]		11	13.5	23	21	17.6							
CC(=NNc1ncnc2c1ncn2C1O[C@H](CO)[C@@](C)(O)[C@H]1O)c1cccnc1 (stereo partly drawn) [I-3, (2R,3S,4R)-2-(hydroxymethyl)-3-methyl-5-(6-(2-(1-(pyridin-3-yl)ethylidene)hydrazinyl)-9H-purin-9-yl)tetrahydrofuran-3,4-diol]		12	17	2.2	17	15	11.2						
C[C@@]1(O)[C@@H](CO)OC(n2cnc3c(NN=Cc4ccccn4)ncnc32)[C@@H]1O (stereo partly drawn) [I-4]	6.8							22	7.6	7.6	3.9	27	
OC[C@H]1O[C@@H](n2cnc3c(NN=C(c4ccccc4)c4ccccn4)ncnc32)C(O)C1O (stereo partly drawn) [I-5, (2R,5R)-2-(hydroxymethyl)-5-(6-(2-(phenyl(pyridin-2-yl)methylene)hydrazinyl)-9H-purin-9-yl)tetrahydrofuran-3,4-diol]		49	44.9	64.5	36	52.5							
CC(=NNc1ncnc2c1ncn2[C@@H]1O[C@H](CO)C(O)C1O)c1ccccn1 (stereo partly drawn) [I-6, (2R,5R)-2-(hydroxymethyl)-5-(6-(2-(1-(pyridin-2-yl)ethylidene)hydrazinyl)-9H-purin-9-yl)tetrahydrofuran-3,4-diol]		11	15	14	12	38							
CC(=NNc1ncnc2c1ncn2[C@@H]1O[C@H](CO)C(O)C1O)c1cccnc1 (stereo partly drawn) [I-7, (2R,5R)-2-(hydroxymethyl)-5-(6-(2-(1-(pyridin-3-yl)ethylidene)hydrazinyl)-9H-purin-9-yl)tetrahydrofuran-3,4-diol]		45	93	63.3	25	144							
CC(=NNc1ncnc2c1ncn2[C@@H]1O[C@H](CO)C(O)C1O)c1ccncc1 (stereo partly drawn) [I-8, (2R,5R)-2-(hydroxymethyl)-5-(6-(2-(1-(pyridin-4-yl)ethylidene)hydrazinyl)-9H-purin-9-yl)tetrahydrofuran-3,4-diol]		56	68	49.6	60	213							
OC[C@H]1OC(n2cnc3c(NN=Cc4cccnc4)ncnc32)[C@H](O)[C@@H]1O (stereo partly drawn) [I-10]	22							14	0.9	18	22	18	
OC[C@H]1OC(n2cnc3c(NN=Cc4ccncc4)ncnc32)[C@H](O)[C@@H]1O (stereo partly drawn) [I-11]	58							70	11	56	71	79	
OC[C@H]1OC(n2cnc3c(NN=C(c4ccccn4)c4ccccn4)ncnc32)[C@H](O)[C@@H]1O (stereo partly drawn) [I-13]	0.3							0.9	0.2	0.3	< 1	0.8	
N#Cc1ccccc1C=NNc1ncnc2c1ncn2C1O[C@H](CO)[C@@H](O)[C@H]1O (stereo partly drawn) [I-14, 2-((2-(9-((3R,4S,5R)-3,4-dihydroxy-5-(hydroxymethyl)tetrahydrofuran-2-yl)-9H-purin-6-yl)hydrazono)methyl)benzonitrile]		0.7	1.9	0.8	0.8	1.2	< 1						
Cc1ccc(C=NNc2ncnc3c2ncn3C2O[C@H](CO)[C@@H](O)[C@H]2O)s1 (stereo partly drawn) [I-15, (2R,3S,4R)-2-(hydroxymethyl)-5-(6-(2-((5-methylthiophen-2-yl)methylene)hydrazinyl)-9H-purin-9-yl)tetrahydrofuran-3,4-diol]		19	16	1.8	4.3	16	5						
OC[C@H]1OC(n2cnc3c(NN=Cc4ccccc4)ncnc32)[C@H](O)[C@@H]1O (stereo partly drawn) [I-16]	15							10	7.6	3	5.5	13	
CC(=NNc1ncnc2c1ncn2C1O[C@H](CO)[C@@H](O)[C@H]1O)c1ccccc1 (stereo partly drawn) [I-17, (2R,3S,4R)-2-(hydroxymethyl)-5-(6-(2-(1-phenylethylidene)hydrazinyl)-9H-purin-9-yl)tetrahydrofuran-3,4-diol]		5	3.1	3.1	1.6	2.6	4.6						
c1ccc(C(=NNc2ncnc3[nH]cnc23)c2ccccn2)cc1 [I-19, 6-(2-(Phenyl(pyridin-2-yl)methylene)hydrazinyl)-9H-purine]		0.9	0.9	0.9	1.4	0.9	< 1						
c1ccc(C(=NNc2ncnc3[nH]cnc23)c2ccccn2)nc1 [I-20, 6-(2-(Dipyridin-2-ylmethylene)hydrazinyl)-9H-purine]		0.1											
Cc1ccc(C=NNc2ncnc3[nH]cnc23)s1 [I-21, 6-[2-((5-Methylthiophen-2-yl)methylene)hydrazinyl]-9H-purine]		11	11	39	38	35	40						
C(=NNc1ncnc2[nH]cnc12)c1ccc[nH]1 [I-22]	7.1							9.2	> 100	12	5.6	6.9	
CC[C@]1(O)C[C@H]2CN(CCc3c([nH]c4ccccc34)[C@@](C(=O)OC)(c3cc4c(cc3OC)N(C=O)[C@H]3[C@@](O)(C(=O)OC)[C@H](OC(C)=O)[C@]5(CC)C=CCN6CC[C@]43[C@@H]65)C2)C1 [vincristine]													1300
